We go through 21 compounds from PubChem BioAssay AID248 (DTP/NCI, 2004).

The assay relates to L1210 leukemia ip in BDF1 mice, survival T/C. In words: NCI In Vivo Anticancer Drug Screen. Data for tumor model L1210 Leukemia (intraperitoneal) in B6D2F1 (BDF1) mice. To be noted: endpoint: mean survival time, higher = longer survival. The method in brief:
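Read-out is survival time, reported as the treated-group measurement over the vehicle-control measurement.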

Setting [1] is: dose: 100.0 mg/kg/injection, schedule: Q04DX003 (ip), vehicle: saline with Tween-80.
The mark [2] stands for this setting: dose: 200.0 mg/kg/injection, schedule: Q04DX003 (ip), vehicle: saline with Tween-80.
Setting [3] is: dose: 400.0 mg/kg/injection, schedule: Q04DX003 (ip), vehicle: saline with Tween-80.
Where [4] appears, read: dose: 50.0 mg/kg/injection, schedule: Q01DX001 (ip), vehicle: other.
Setting [5] is: dose: 100.0 mg/kg/injection, schedule: Q01DX001 (ip), vehicle: other.
[6] abbreviates: dose: 200.0 mg/kg/injection, schedule: Q01DX001 (ip), vehicle: other.
The mark [7] stands for this setting: dose: 400.0 mg/kg/injection, schedule: Q01DX001 (ip), vehicle: other.
Where [8] appears, read: dose: 100.0 mg/kg/injection, schedule: Q04DX003 (ip), vehicle: saline.
The mark [9] stands for this setting: dose: 200.0 mg/kg/injection, schedule: Q04DX003 (ip), vehicle: saline.
Setting [10] is: dose: 400.0 mg/kg/injection, schedule: Q04DX003 (ip), vehicle: saline.

Several values for one entry are separate records, joined by “and”; a condition that tells them apart may be missing. Equal entries are not always repeated. Inconclusive results and toxic doses are left out.

`CCCCCCCCCCCCSCCCN`: the T/C is 96 % of control (dose: 12.5 mg/kg/injection, schedule: Q04DX003 (ip), vehicle: saline with Tween-80); 93 % of control (dose: 25.0 mg/kg/injection, schedule: Q04DX003 (ip), vehicle: saline with Tween-80); 96 % of control (dose: 50.0 mg/kg/injection, schedule: Q04DX003 (ip), vehicle: saline with Tween-80).
With `COc1cc2ccccc2cc1C(=O)NN`, the T/C was 94 % of control (dose: 75.0 mg/kg/injection, schedule: Q04DX003 (ip), vehicle: Klucel (hydroxypropylcellulose) (HPC)); 102 % of control (dose: 150.0 mg/kg/injection, schedule: Q04DX003 (ip), vehicle: Klucel (hydroxypropylcellulose) (HPC)); 97 % of control (dose: 300.0 mg/kg/injection, schedule: Q04DX003 (ip), vehicle: Klucel (hydroxypropylcellulose) (HPC)).
On to `C=CCOc1cccc(OCC=C)c1C`, for which the T/C reads like this: under setting [1], 100 % of control; under setting [2], 98 % of control; under setting [3], 98 % of control.
Regarding `O=C(O)c1cc[c]([Hg][S]c2ncnc3nc[nH]c23)cc1`, the T/C (dose: 6.0 mg/kg/injection, schedule: Q01DX Z (ip), vehicle: carboxymethylcellulose (CMC)) was 105 % of control; the T/C (dose: 6.25 mg/kg/injection, schedule: Q01DX015 (ip), vehicle: saline) is 110 % of control; the T/C (dose: 12.0 mg/kg/injection, schedule: Q01DX Z (ip), vehicle: carboxymethylcellulose (CMC)) is 116 % of control; the T/C (dose: 16.5 mg/kg/injection, schedule: Q01DX009 (ip), vehicle: saline) is 118 % of control; the T/C (dose: 25.0 mg/kg/injection, schedule: Q01DX015 (ip), vehicle: saline) was 164 % of control; the T/C (dose: 50.0 mg/kg/injection, schedule: Q01DX Z (ip), vehicle: carboxymethylcellulose (CMC)) was 103 % of control. Moreover, the T/C (dose: 100.0 mg/kg/injection, schedule: Q01DX Z (ip), vehicle: carboxymethylcellulose (CMC)) was 114 % of control.
Regarding `O=C(O)c1ccc(Cl)cc1Nc1ccc(F)cc1`, the T/C runs as follows: (dose: 100.0 mg/kg/injection, schedule: Q01DX001 (ip), vehicle: Klucel (hydroxypropylcellulose) (HPC)) 100 % of control; (dose: 100.0 mg/kg/injection, schedule: Q01DX009 (ip), vehicle: Klucel (hydroxypropylcellulose) (HPC)) 96 % of control; (dose: 200.0 mg/kg/injection, schedule: Q01DX001 (ip), vehicle: Klucel (hydroxypropylcellulose) (HPC)) 100 % of control; (dose: 400.0 mg/kg/injection, schedule: Q01DX001 (ip), vehicle: Klucel (hydroxypropylcellulose) (HPC)) 100 % of control.
As for `CCOC(=O)C(C(=O)OCC)C1c2ccccc2C(=O)N(CCN(C)C)c2ccccc21` (stereo not drawn), the T/C is 96 % of control (dose: 25.0 mg/kg/injection, schedule: Q01DX009 (ip), vehicle: saline); 99 % of control (dose: 50.0 mg/kg/injection, schedule: Q01DX009 (ip), vehicle: saline); 98 % of control (dose: 100.0 mg/kg/injection, schedule: Q01DX009 (ip), vehicle: saline).
On to `O=C(Nc1ccccn1)c1ccccc1`, for which, for the setting “dose: 100.0 mg/kg/injection, schedule: Q04DX002 (ip), vehicle: saline with Tween-80”, the T/C was 99 % of control.
As for `Cc1c(Cl)ccc2c(C(=O)NN)cc(-c3ccc(Cl)cc3)nc12`, the T/C was 92 % of control (dose: 100.0 mg/kg/injection, schedule: Q01DX001 (ip), vehicle: saline with Tween-80); 97 % of control (dose: 200.0 mg/kg/injection, schedule: Q01DX001 (ip), vehicle: saline with Tween-80); 97 % of control (dose: 400.0 mg/kg/injection, schedule: Q01DX001 (ip), vehicle: saline with Tween-80).
In the case of `O=C(NC(CO)C(O)c1ccc([N+](=O)[O-])cc1)C(Cl)Cl` (stereo not drawn), the T/C is 102 % of control under setting [1], 101 % of control under setting [2] and 106 % of control under setting [3].
In the case of `COc1ccc(CC/C(=N/O)c2ccccc2)cc1`, the T/C reads like this: under setting [4], 94 % of control; under setting [5], 100 % of control; under setting [6], 90 % of control; under setting [7], 102 % of control.
In the case of `CCCCCCCCCCOC(=O)C[n+]1cccc(C(=O)Nc2ccc(Cl)cc2)c1`, the T/C is 97 % of control (dose: 12.5 mg/kg/injection, schedule: Q04DX003 (ip), vehicle: saline); 105 % of control (dose: 25.0 mg/kg/injection, schedule: Q04DX003 (ip), vehicle: saline); 90 % of control (dose: 50.0 mg/kg/injection, schedule: Q04DX003 (ip), vehicle: saline).
For the compound `CCc1c(O)c2ccc3ccccc3c2oc1=O`, the T/C is 97 % of control under setting [8], 94 % of control under setting [9] and 94 % of control under setting [10].
With `Cc1nnc2c3ccccc3ccn12`, the T/C reads like this: (dose: 50.0 mg/kg/injection, schedule: Q01DX001 (ip), vehicle: saline) 101 % of control; (dose: 100.0 mg/kg/injection, schedule: Q01DX001 (ip), vehicle: saline) 101 % of control; (dose: 200.0 mg/kg/injection, schedule: Q01DX001 (ip), vehicle: saline) 103 % of control.
In the case of `COc1ccc2c(C(=O)CCC(=O)O)cccc2c1`, the T/C is, setting by setting: under setting [8], 104 % of control; under setting [9], 95 % of control; under setting [10], 106 % of control.
Turning to `CON(C)C(=O)CCN1CC1`, the T/C (dose: 10.0 mg/kg/injection, schedule: Q01DX009 (ip), vehicle: saline) was 97 % of control; the T/C (dose: 20.0 mg/kg/injection, schedule: Q01DX009 (ip), vehicle: saline) is 94 % of control; the T/C (dose: 20.0 mg/kg/injection, schedule: Q04DX003 (ip), vehicle: saline) is 100 % of control; the T/C (dose: 40.0 mg/kg/injection, schedule: Q01DX009 (ip), vehicle: saline) is 97 % of control; the T/C (dose: 40.0 mg/kg/injection, schedule: Q04DX003 (ip), vehicle: saline) is 100 % of control; the T/C (dose: 80.0 mg/kg/injection, schedule: Q04DX003 (ip), vehicle: saline) is 104 % of control. Further, the T/C under setting [8] is 94 % of control.
For the compound `CCN(CC)CCN1C(=O)c2ccccc2S1(=O)=O`, the T/C reads like this: (dose: 44.0 mg/kg/injection, schedule: Q01DX Z (ip), vehicle: saline) 100 % of control; (dose: 66.0 mg/kg/injection, schedule: Q01DX Z (ip), vehicle: saline) 98 % of control; (dose: 100.0 mg/kg/injection, schedule: Q01DX Z (ip), vehicle: saline) 98 % of control.
With `c1ccc(C2O[O][Sn]([c]3ccccc3)([c]3ccccc3)[O]2)cc1` (stereo not drawn), the T/C reads like this: (dose: 25.0 mg/kg/injection, schedule: Q04DX002 (ip), vehicle: gum acacia) 97 % of control; (dose: 50.0 mg/kg/injection, schedule: Q04DX002 (ip), vehicle: gum acacia) 111 % of control; (dose: 100.0 mg/kg/injection, schedule: Q04DX002 (ip), vehicle: gum acacia) 105 % of control and 86 % of control.
For the compound `O=C(/C(=N/O)c1ccccc1)c1ccccc1`, the T/C under setting [4] is 103 % of control, the T/C under setting [5] is 97 % of control, the T/C under setting [6] is 105 % of control and the T/C under setting [7] was 100 % of control.
With `C#CCCCCCC#[C][Hg][C]#CCCCCCC#C.C#CCCCCCC#[C][Hg][C]#CCCCCCC#C`, the T/C is 90 % of control (dose: 75.0 mg/kg/injection, schedule: Q01DX001 (ip), vehicle: saline); 92 % of control (dose: 150.0 mg/kg/injection, schedule: Q01DX001 (ip), vehicle: saline); 95 % of control (dose: 300.0 mg/kg/injection, schedule: Q01DX001 (ip), vehicle: saline).
In the case of `COc1cc(/C=C/c2ccnc3ccccc23)cc(OC)c1OC`, the T/C is, setting by setting: (dose: 5.0 mg/kg/injection, schedule: Q01DX001 (ip), vehicle: saline) 96 % of control; (dose: 10.0 mg/kg/injection, schedule: Q01DX001 (ip), vehicle: saline) 102 % of control; (dose: 20.0 mg/kg/injection, schedule: Q01DX001 (ip), vehicle: saline) 102 % of control; (dose: 40.0 mg/kg/injection, schedule: Q01DX001 (ip), vehicle: saline) 91 % of control.
Regarding `O=C(c1ccccc1)c1cc(-c2ccccc2)n(C2CCCCC2)c1`, the T/C reads like this: (dose: 25.0 mg/kg/injection, schedule: Q01DX009 (ip), vehicle: saline with Tween-80) 96 % of control and 120 % of control; (dose: 50.0 mg/kg/injection, schedule: Q01DX009 (ip), vehicle: saline with Tween-80) 94 % of control and 95 % of control and 98 % of control; (dose: 200.0 mg/kg/injection, schedule: Q01DX009 (ip), vehicle: saline with Tween-80) 91 % of control and 92 % of control.
